Results on four compounds are retold here after US10851129B2, “Composition, crocins active site, and uses thereof” (Jinan University, priority 2016, dated 2020).

This assay deals with SH-SY5Y nerve cells. Briefly: Neuroprotection in SH-SY5Y cell damage model induced by L-glutamic acid (MTT). The assay is classed as cell-based. To be noted: L-glutamic acid 160 mM, 24 h, effective rate %. Here is the method: SH-SY5Y nerve cells were cultured in DMEM medium (containing 5% fetal calf serum by volume fraction) which were placed in an incubator containing 5% CO2 under 37° C. They were subcultured once every 3-4 days. Cells in logarithmic phase were used for test
SH-SY5Y cells were inoculated in a 96-well plate at a concentration of 5×10^3 and continued to culture for 24 h. […] 3 parallel wells were arranged for each concentration. They were continued to culture for 24 h. 24 h later, the supernatant was pipetted out and discarded. 100 μL MTT (0.5 mg/mL) was added into each well. They were further incubated for 4 h. Then the supernatant was pipetted out and discarded. 150 μL DMSO was added into each well. They were vibrated for 10 min. A wavelength of 570 nm was selected. The absorbance value was measured on a microplate reader^[13]. (effective rate %=(ODdrug−ODmodel)/(ODcontrol−ODmodel)*100).

With `CC(/C=C/C=C(\C)C(=O)O[C@@H]1OC(CO)[C@@H](O)C(O)C1O)=C\C=C\C=C(C)\C=C\C=C(/C)C(=O)O[C@@H]1OC(CO[C@@H]2OC(CO)[C@@H](O)C(O)C2O)[C@@H](O)C(O)C1O` (stereo partly drawn) [Compound 2, crocetin-β-D-glucopyranosyl-β-D-gentiobioside], the “Neuroprotective effective rate (recovery of viability relative to glutamate model)” value (drug 10^−5 moL/L) is given as 0.00 ± 0.00%, the “Neuroprotective effective rate (recovery of viability relative to glutamate model)” value (drug 10^−6 moL/L) is recorded as 0.00 ± 0.00% and the “Neuroprotective effective rate (recovery of viability relative to glutamate model)” value (drug 10^−7 moL/L) is on record as 0.00 ± 0.00%.
Consider `CC(/C=C/C=C(\C)C(=O)O)=C\C=C\C=C(C)\C=C\C=C(/C)C(=O)O[C@@H]1OC(CO)[C@@H](O)C(O)C1O` (stereo partly drawn) [Compound 9, crocetin mono-β-D-glucopyranoside], for which the “Neuroprotective effective rate (recovery of viability relative to glutamate model)” value by setting is: (drug 10^−5 moL/L) 0.00 ± 0.00%; (drug 10^−6 moL/L) 0.00 ± 0.00%; (drug 10^−7 moL/L) 0.00 ± 0.00%.
For the compound `CC(/C=C/C=C(\C)C(=O)O[C@@H]1OC(CO)[C@@H](O)C(O)C1O)=C\C=C\C=C(C)\C=C\C=C(/C)C(=O)O[C@@H]1OC(CO)[C@@H](O)C(O)C1O` (stereo partly drawn) [Compound 3, crocetin di-β-D-glucopyranoside], the “Neuroprotective effective rate (recovery of viability relative to glutamate model)” value runs as follows: (drug 10^−5 moL/L) 0.00 ± 0.00%; (drug 10^−6 moL/L) 0.00 ± 0.00%; (drug 10^−7 moL/L) 0.00 ± 0.00%.
Turning to `CC(/C=C/C=C(\C)C(=O)O[C@@H]1O[C@H](CO[C@@H]2O[C@H](CO)[C@@H](O)[C@H](O)[C@H]2O)[C@@H](O)[C@H](O)[C@H]1O)=C\C=C\C=C(C)\C=C\C=C(/C)C(=O)O[C@@H]1[C@H](O)C[C@@](O)(C(=O)O)C[C@H]1OC(=O)/C=C/c1ccc(O)c(O)c1` [Compound 5, neocrocin B], the “Neuroprotective effective rate (recovery of viability relative to glutamate model)” value is 40.03 ± 3.91 % (drug 10^−5 moL/L), 27.63 ± 5.36 % (drug 10^−6 moL/L) and 9.89 ± 2.93% (drug 10^−7 moL/L).
